Source: US9695160B2, “Piperazine derivatives for treating disorders” (THE UNIVERSITY OF NOTTINGHAM, priority 2014, dated 2017)
“Also recorded” adds a separate entry of the source. Like-named read-outs stand apart in the source and are kept apart here.

Columns and labels:
SRPK1 [1] = molecular target: T1, SRPK1 (Homo sapiens (Human), UniProt Q96SB4); assay: In vitro kinase assay (Kinase-Glo), SRPK1 inhibition; type: biochemical; conditions: Table 2, SRPK1 inhibition assay
Protocol: Candidate compounds were serially diluted from 10 μM-0.5 nM and added to the reaction mixture, wells with omitted SRPK1 kinase and omitted compounds were also added as controls. All wells contained one percent DMSO. One micromolar ATP was added, wells minus ATP were used as background controls. The plate was then incubated at 30° C. for 10 minutes. An equal volume of Kinase-Glo (Promega, 25 μl) was added to each well and the plate read for luminescence using an Fluostar Optima (BMG Labtech).

in vitro = conditions: human
Source text: We also tested the half life of these compounds when exposed to human liver microsomes.

SRSF1 localisation [2] = assay: SRSF1 nuclear localisation by immunofluorescence in MDA-MB231 cells; type: cell-based
SRSF1 localisation [3] = assay: SRSF1 nuclear localisation by immunofluorescence in PC3 cells; type: cell-based
[4] = Scleral permeability, modified Ussing chamber, rabbit eye tissue; conditions: rabbit sclera; for detection in the vitreous: 24 hours
Protocol: (§1) Scleral permeability was measured using a modified Ussing chamber assembly in isotonic assay buffer (pH 7.4). Rabbit or porcine excised eye tissues were mounted in the chambers such that the episcleral side faced the donor chamber and the retinal side faced the receiver chamber. The chambers were filled with equal volumes of assay buffer, with (donor side) or without (receiver side) 1 μg/ml compound. After 4 or 24 hours tissue was removed from the chamber and the receiver side (“vitreous”) sampled. Tissue was dissected into sclera, choroid/RPE, and retina and homogenised.
(§2) After 0, 4 or 24 hours, the fluid from the bottom chamber (vitreous) and the retinal tissue was isolated and compounds purified by acetonitrile extraction and HPLC.

VEGF165b [5] = assay: VEGF165b expression in RPE cells; type: cell-based
[6] = Solubility in water of salt forms; conditions: salt forms versus free compounds
[7] = Scleral permeability, modified Ussing chamber, porcine eye tissue; type: in vitro ADME; conditions: porcine eyes
Protocol: as §1, §2

[8] = type: cell-based
Source text: To test whether compounds of Formula (I) are safe to administer to patients we began a basic safety test of these compounds in vitro.

VEGF165b [9] = conditions: cited from earlier work
[10] = test system: choroidal neovascularisation; conditions: mouse models of CNV, previously shown; cited from earlier work
[11] = molecular target: human ether a go-go related gene (hERG) K+ channel (Homo sapiens (Human), UniProt Q12809); conditions: previously described (Gammons et al., 2013); cited from earlier work
Sequence of human ether a go-go related gene (hERG) K+ channel (Q12809 whole entry): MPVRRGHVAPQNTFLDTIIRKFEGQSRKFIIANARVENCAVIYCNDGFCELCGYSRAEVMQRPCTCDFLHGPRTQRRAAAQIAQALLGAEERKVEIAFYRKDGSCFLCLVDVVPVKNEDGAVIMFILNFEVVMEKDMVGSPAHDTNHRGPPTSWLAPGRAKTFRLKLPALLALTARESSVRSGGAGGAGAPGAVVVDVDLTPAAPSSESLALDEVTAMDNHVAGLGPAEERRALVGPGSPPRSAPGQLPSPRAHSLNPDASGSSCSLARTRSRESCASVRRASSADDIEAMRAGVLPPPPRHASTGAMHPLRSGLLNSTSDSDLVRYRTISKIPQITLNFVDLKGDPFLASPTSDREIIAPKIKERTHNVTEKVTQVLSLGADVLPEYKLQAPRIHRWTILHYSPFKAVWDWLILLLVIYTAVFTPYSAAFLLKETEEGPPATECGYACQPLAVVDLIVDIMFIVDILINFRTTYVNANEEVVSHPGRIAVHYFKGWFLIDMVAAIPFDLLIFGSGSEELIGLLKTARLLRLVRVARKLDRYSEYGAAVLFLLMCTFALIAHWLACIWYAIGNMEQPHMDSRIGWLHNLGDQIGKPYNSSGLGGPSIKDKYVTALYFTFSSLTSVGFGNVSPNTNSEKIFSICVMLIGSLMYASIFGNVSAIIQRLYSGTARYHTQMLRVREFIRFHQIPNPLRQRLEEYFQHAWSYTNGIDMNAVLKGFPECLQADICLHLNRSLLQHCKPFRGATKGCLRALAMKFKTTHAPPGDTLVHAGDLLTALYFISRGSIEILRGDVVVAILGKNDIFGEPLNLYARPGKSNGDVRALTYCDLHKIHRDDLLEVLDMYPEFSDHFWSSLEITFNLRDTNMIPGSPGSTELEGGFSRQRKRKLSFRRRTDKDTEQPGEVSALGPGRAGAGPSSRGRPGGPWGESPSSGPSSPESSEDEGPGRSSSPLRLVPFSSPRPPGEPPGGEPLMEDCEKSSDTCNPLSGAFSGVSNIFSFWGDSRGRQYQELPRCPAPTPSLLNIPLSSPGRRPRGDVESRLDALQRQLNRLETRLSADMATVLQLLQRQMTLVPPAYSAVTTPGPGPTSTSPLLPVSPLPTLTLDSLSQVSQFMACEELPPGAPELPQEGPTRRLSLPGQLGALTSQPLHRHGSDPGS

SRPK1 [12] = molecular target: T1, SRPK1; conditions: read-out: IC50 of SRPK1 inhibition; previously shown; cited from earlier work
[13] = monthly 0.5 mg, at one year; cited from earlier work

T1 sequence (Q96SB4 whole entry): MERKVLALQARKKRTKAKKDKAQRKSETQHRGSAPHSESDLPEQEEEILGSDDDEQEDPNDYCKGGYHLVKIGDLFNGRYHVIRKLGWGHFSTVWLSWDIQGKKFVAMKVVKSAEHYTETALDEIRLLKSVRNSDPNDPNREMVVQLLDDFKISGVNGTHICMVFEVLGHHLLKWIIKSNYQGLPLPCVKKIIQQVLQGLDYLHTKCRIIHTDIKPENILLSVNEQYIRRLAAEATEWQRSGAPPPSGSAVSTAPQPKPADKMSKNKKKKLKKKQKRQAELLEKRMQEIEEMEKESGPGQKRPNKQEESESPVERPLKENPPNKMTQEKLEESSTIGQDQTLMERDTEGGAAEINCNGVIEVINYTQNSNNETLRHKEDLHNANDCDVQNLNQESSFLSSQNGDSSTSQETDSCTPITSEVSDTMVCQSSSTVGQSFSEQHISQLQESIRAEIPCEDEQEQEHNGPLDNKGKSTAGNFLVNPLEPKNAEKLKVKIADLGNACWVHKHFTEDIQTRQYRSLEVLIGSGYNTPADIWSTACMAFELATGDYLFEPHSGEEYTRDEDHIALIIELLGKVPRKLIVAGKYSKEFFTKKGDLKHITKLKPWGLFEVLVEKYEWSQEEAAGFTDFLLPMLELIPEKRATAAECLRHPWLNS

CSc1nccc(CN2CCN(c3ccc(C(F)(F)F)cc3NC(=O)c3ccc(C)o3)CC2)n1 [Compound 31]
IC50 (SRPK1 [1]): 1.9 nM

O=C(Nc1cc(C(F)(F)F)ccc1N1CCN(Cc2ccccn2)CC1)c1ccc(-c2ccncc2)o1 [Compound 12]
half-life (in vitro; microsomes): 1.02 h
SRSF1 cellular localisation (SRSF1 localisation [2]): inhibited cellular localisation
SRSF1 cellular localisation (SRSF1 localisation [3]): inhibited cellular localisation
detection in the vitreous [4]: more SPHINX31 than pazopanib
expression of anti-angiogenic VEGF165b (VEGF165b [5]): dose dependent increase in VEGF165b
solubility in water [6]: more freely soluble in water

Cc1nnc(C(=O)Nc2cc(C(F)(F)F)ccc2N2CCN(Cc3ccccn3)CC2)o1 [Compound 28]
IC50 (SRPK1 [1]): 10000 nM

O=C(Nc1cc(C(F)(F)F)ccc1N1CCN(Cc2ccccc2)CC1)c1ccc(-c2cccnc2)o1 [Compound 21]
half-life (in vitro; liver microsomes): 1.04 h
IC50 (SRPK1 [1]): 4.6 nM

O=C(Nc1cc(C(F)(F)F)ccc1N1CCN(Cc2ccccc2)CC1)c1ccco1 [Compound 19]
IC50 (SRPK1 [1]): 14.1 nM

CN1CCN(c2ccc(C(F)(F)F)cc2NC(=O)c2cccs2)CC1 [Compound 40]
IC50 (SRPK1 [1]): 4690 nM

O=C(Nc1cc(C(F)(F)F)ccc1N1CCN(Cc2ccncc2)CC1)c1ccc(-c2ccncc2)o1 [Compound 14]
solubility in water [6]: more freely soluble in water

Cc1ccc(Nc2nccc(N(C)c3ccc4c(C)n(C)nc4c3)n2)cc1S(N)(=O)=O [pazopanib]
detection in retina and vitreous ([4]; 4 hrs): could not
detection in the vitreous [4]: detected
accumulation in sclera and RPE/Choroid layer [7]: accumulated in the sclera and in the RPE/Choroid layer
penetration into retina and vitreous [7]: did not penetrate the retina

O=C(Nc1cc(C(F)(F)F)ccc1N1CCN(Cc2cccnc2)CC1)c1ccc(-c2ccncc2)o1 [Compound 13]
solubility in water [6]: more freely soluble in water

O=C(Nc1cc(C(F)(F)F)ccc1N1CCN(Cc2cnccn2)CC1)c1ccco1 [Compound 43]
IC50 (SRPK1 [1]): 183 nM

CN(C)CCN1CCN(c2ccc(C(F)(F)F)cc2NC(=O)c2ccc(-c3ccncc3)o2)CC1 [SPHINX7]
doses at which toxic [8]: greater than 10 μM

Cc1cnc(C(=O)Nc2cc(C(F)(F)F)ccc2N2CCN(Cc3ccccn3)CC2)o1 [Compound 27]
IC50 (SRPK1 [1]): 10000 nM

O=C(Nc1cc(C(F)(F)F)ccc1N1CCN(Cc2ccccn2)CC1)c1nc(-c2ccccc2)no1 [Compound 34]
IC50 (SRPK1 [1]): 5310 nM

bevicizumab: an anti-VEGF antibody from which Lucentis was derived
binding of VEGF165b versus VEGF165 (VEGF165b [9]): equal potency

CN1CCN(c2ccc(C(F)(F)F)cc2NC(=O)c2nc(-c3ccccc3)c[nH]2)CC1 [Compound 41]
IC50 (SRPK1 [1]): 493 nM

O=C(Nc1cc(C(F)(F)F)ccc1N1CCCCC1)c1ccncc1 [SRPIN340]
eye drop concentration of maximum anti-angiogenic effect [10]: 10 µg/mL
hERG inhibition [11]: do not inhibit hERG
IC50 (SRPK1 [12]): 1000 nM

Cc1ccc(C(=O)Nc2cc(C(F)(F)F)ccc2N2CCN(Cc3ccccc3)CC2)o1 [Compound 20]
half-life (in vitro; liver microsomes): 0.283 h
IC50 (SRPK1 [1]): 4.4 nM

Cc1ccc(C(=O)Nc2cc(C(F)(F)F)ccc2N2CCOCC2)o1 [SPHINX]
eye drop concentration of maximum anti-angiogenic effect [10]: 10 µg/mL
hERG inhibition [11]: did not inhibit hERG; also recorded: do not inhibit hERG

B1: Lucentis: a novel humanized anti-VEGF antibody fragment (antibody, chains of the INN, looked up, V domains shown)
VH: EVQLVESGGGLVQPGGSLRLSCAASGYDFTHYGMNWVRQAPGKGLEWVGWINTYTGEPTYAADFKRRFTFSLDTSKSTAYLQMNSLRAEDTAVYYCAKYPYYYGTSHWYFDVWGQGTLVTVSS
VL: DIQLTQSPSSLSASVGDRVTITCSASQDISNYLNWYQQKPGKAPKVLIYFTSSLHSGVPSRFSGSGSGTDFTLTISSLQPEDFATYYCQQYSTVPWTFGQGTKVEIK
modifications: Fab
notes: a novel humanized anti-VEGF antibody fragment
patients who maintained visual acuity (loss of <15 letters) [13]: approximately 95%
patients with improved vision (gain of ≧15 letters) [13]: ≤ 40%
